How the values were obtained:
H1975 cell line [1] = assay: H1975 duration of response study, T75 flask format; format: cell-based, human; conditions: for Time Elapsed: H1975, T75 flask, single agent: 100 nM palbociclib or 600 nM PF-06747775; for delay in time required to reach a specific total cell number compared to DMSO control (FIG. 1) / number of days for 5×10^5 cells to grow to 8×10^6 cells, Independent Experiment Number 1 / number of days for 5×10^5 cells to grow to 8×10^6 cells, Independent Experiment Number 2: H1975, PF-06747775 600 nM, palbociclib 100 nM, single agents or combination
Procedure: (§1) This experimental approach provides a model of DOR and a means for testing whether combination regimens can increase or extend DOR (Tricker E M, Xu C, Uddin S, et al. Combined EGFR/MEK Inhibition Prevents the Emergence of Resistance in EGFR-Mutant Lung Cancer. Cancer Discov 2015; 5(9):960-71). […] Two different assay formats were used to facilitate quantitative assessment of time to regrowth and to address reproducibility in orthogonal formats.
H1975 cells were seeded (5×10^5 cells per flask) in T75 flasks (one or two flasks per treatment condition). […] Time was monitored. When growth reached 70-90% confluence, the cells were harvested, counted, and half of the collected cells were used to seed a fresh T75 flask. Once growth reached 70-90% confluence again, this process was repeated, then repeated again and again until a constant growth rate was achieved. Results were plotted as total live cells counted over time, for example, at each harvest, the cell number counted at that harvest was added to previous cell count numbers, then plotted as total live cells at that time point.

H1975 cell line [2] = assay: H1975 duration of response study, 96-well plate format; format: cell-based, human; conditions: PF-06747775 600 nM, palbociclib 100 nM, single agents or combination
Text: as §1
A 96-well plate format assay was adapted from a published report (Tricker, E., et al., “Combined EGFR/MEK Inhibition Prevents the Emergence of Resistance in EGFR-Mutant Lung Cancer,” Cancer Discovery, 2015, 960-971, vol. 5, no. 9). […] Time was monitored. […] Non-terminal reading of live cells was conducted weekly using an IncuCyte instrument (microscopy-based cell counting, Essen Bioscience, Ann Arbor, Mich., USA). At selected time points throughout the treatment duration, a terminal reading of live cells by Cell Titer Glow method (cell ATP-based counting, Promega, Madison, Wis., USA) was used to confirm cell counts over time and at the end of study. Results were plotted as percent of wells reaching a designated confluency (e.g. 50% confluent) at different time points throughout the treatment period.

PC9 cell line = assay: PC9 duration of response study, T75 flask format; format: cell-based, human; conditions: method of Example 2 (PF-06747775 600 nM, palbociclib 100 nM)
HCC4006 cell line = assay: HCC4006 duration of response study, T75 flask format; format: cell-based, human; conditions: method of Example 2 (PF-06747775 600 nM, palbociclib 100 nM)
H1975 xenograft tumors = assay: H1975 xenograft model, tumor growth inhibition; format: in vivo, nude/nude (nu/nu) female mice; conditions: oral, daily
Text: Four- to six-week-old nude/nude (nu/nu) female mice were obtained from Charles River Laboratories (Hollister, Calif., USA) and maintained in pressurized ventilated caging at the Pfizer La Jolla animal facility. All studies were approved by Pfizer Institutional Animal Care and Use Committees. Xenograft tumors were established by subcutaneously implanting 5×10^6 H1975 cells suspended 1:1 (v/v) with reconstituted basement membrane (Matrigel, BD Biosciences) in nu/nu mice. […] Tumor dimensions were measured with vernier calipers and tumor volumes were calculated using the formula of π/6×larger diameter x (smaller diameter)^2. […] Tumor regression percentage was calculated as 100×(1−ΔT/starting tumor size).

Cytochrome P-450 3A4 = conditions: in vivo; cited from earlier work
[3] = Plasma drug levels in H1975 xenograft study (blood samples day 15)
Procedure: Drugs were formulated once per in vivo experiment and were dosed daily at a concentration of 10 mL/kg through oral gavage.

HCC827 cell line = assay: HCC827 duration of response study, T75 flask format; format: cell-based, human; conditions: method of Example 2 (PF-06747775 600 nM, palbociclib 100 nM)

Row | SMILES | Time Elapsed (H1975 cell line [1]) [days] | delay in time required to reach a specific total cell number compared to DMSO control (FIG. 1) (H1975 cell line [1]) | number of days for 5×10^5 cells to grow to 8×10^6 cells, Independent Experiment Number 1 (H1975 cell line [1]) [days] | number of days for 5×10^5 cells to grow to 8×10^6 cells, Independent Experiment Number 2 (H1975 cell line [1]) [days] | number of days for 350 cells per well to grow to 50% of the wells reaching 50% confluence, Independent Experiment Number 1 (H1975 cell line [2]) [days] | number of days for 350 cells per well to grow to 50% of the wells reaching 50% confluence, Independent Experiment Number 2 (H1975 cell line [2]) [days] | PC9 Time elapsed (days) for 5×10^5 cells to grow to 8×10^6 cells (PC9 cell line) [days] | HCC4006 Time elapsed (days) for 5×10^5 cells to grow to 8×10^6 cells (HCC4006 cell line) [days] | anti-tumor efficacy of single agent after 10 days of dosing (H1975 xenograft tumors; PF-06747775 10 mpk, 10 days) | effect on tumor growth inhibition (TGI) (FIG. 2) (H1975 xenograft tumors; PF-06747775 single agent, 10/20 mpk (20 mpk from day 11)) | metabolism by Cytochrome P-450 3A4 (Cytochrome P-450 3A4) | Plasma Average Free Drug Concentration Over the 24 hour Dosing Interval, PF-06747775 ([3]; PF-06747775 10/20 mpk alone) [nM] | HCC827 (independent experiment) Number 1 (days) for 5×10^5 cells to grow to 8×10^6 cells (HCC827 cell line) [days] | HCC827 (independent experiment) Number 2 (days) for 5×10^5 cells to grow to 8×10^6 cells (HCC827 cell line) [days] | effect on tumor growth inhibition (TGI) (FIG. 2) (H1975 xenograft tumors; palbociclib single agent, 70 mpk) | effect on tumor growth inhibition (TGI) (FIG. 2) (H1975 xenograft tumors; palbociclib single agent, lower doses (22 mpk and 7 mpk)) | Plasma Average Free Drug Concentration Over the 24 hour Dosing Interval, Palbociclib ([3]; Palbo 7 mpk alone) [nM] | Plasma Average Free Drug Concentration Over the 24 hour Dosing Interval, Palbociclib ([3]; Palbo 22 mpk alone) [nM] | Plasma Average Free Drug Concentration Over the 24 hour Dosing Interval, Palbociclib ([3]; Palbo 70 mpk alone) [nM]
1 | C=CC(=O)N[C@@H]1CN(c2nc(Nc3cn(C)nc3OC)c3ncn(C)c3n2)C[C@H]1F [PF-06747775, N-((3R,4R)-4-fluoro-1-(6-((3-methoxy-1-methyl-1H-pyrazol-4-yl)amino)-9-methyl-9H-purin-2-yl)pyrrolidin-3-yl)acrylamide] | 21 | significant delay | 15 | 21 | 16 | 19 | 73 | 51 | less than the desired comparator level | moderate effect | metabolized in vivo by this same enzyme | 95 |  |  |  |  |  |  | 
2 | CC(=O)c1c(C)c2cnc(Nc3ccc(N4CCNCC4)cn3)nc2n(C2CCCC2)c1=O [palbociclib, 6-acetyl-8-cyclopentyl-5-methyl-2-(5-piperazin-1-yl-pyridin-2-ylamino)-8H-pyrido[2,3-d]pyrimidin-7-one] | 5 | slight delay, if any | 4 | 5 | 7 | 7 | 5 | 18 |  |  |  |  | 11 | 11 | minor effect | no effect | 6 | 45 | 127
